Measurements as given in patent US9822190B2, “Compositions and method for anti-sickling of red blood cells in sickle cell disease” (priority 2015, dated 2017).
Entries after “also recorded” stand apart in the source; their conditions may differ.

Columns and labels:
[1] = Plasma tinzaparin level after oral administration to mice (colorimetric assay); format: in vivo; details: oral gavage, 1.6 mg/kg
Procedure: Nanoformulated LMWH as shown in Examples 1-5 were administered orally to mice versus standard LMWH at the same dose. Blood samples were withdrawn at different time and plasma levels of LMWH were measured using colorimetric assay.
FIG. 11 is a graph of plasma tinzaparin level versus time profiles in mice with formulations administered by oral gavage into the mice at dose of 1.6 mg/kg, in accordance with embodiments of the present invention. Graphs for Tinzaparin, and Chitosan NPs with positive charge and with negative charge are shown. Data are shown as mean±SD (n=4).

RBC from SCD subjects = assay: Anti-sickling of RBC from SCD subjects under hypoxia (blood smears); format: cell-based, human; details: for anti-sickling (average): 10 ug/ml blood
Procedure: (§1) Red Blood Cell (RBC) sickling were studied in blood samples obtained from 12 sickle cell subjects and 6 samples from healthy volunteers matched in terms of age and gender. The blood samples from the subjects were withdrawn and mixed into EDTA tube (10 ml), and then divided into 2 tubes 4-5 ml each (One containing S-NACH 10-100 ug/ml blood added at 10 ul/1 ml blood or PBS buffer solution).
(§2) Blood samples were incubated for 2-3 hours at room temperature and then blood smears were obtained for monitoring shape of RBCs (take photos for later quantitation number of normal vs. sickle RBCs). Then blood samples were centrifuged to get the plasma, and the plasma were frozen for further testing of various biomarkers.

[2] = system: RBC from healthy subjects; assay: Effect on morphology of RBC from healthy subjects; format: cell-based, human
Procedure: as §1, §2

Compound: Tinzaparin [standard tinzaparin]
- blood levels after oral administration [1]: no detectable blood levels

Compound: OC[C@H]1O[C@@](CO)(O[C@H]2O[C@H](CO)[C@@H](O)[C@H](O)[C@H]2O)[C@@H](O)[C@@H]1O [sucrose, reference compound]
- effect on the average % of sickle RBC (RBC from SCD subjects; Patient #7, over 2-4 hours hypoxia at 25 degree centigrade): no significant effect
- effect on the sickling (RBC from SCD subjects; Patient #7 acute crisis, hypoxia 2-4 hours at 25 degree centigrade): no significant effect

Compound: Sulfated Non-Anticoagulant Heparin [SNACH]
- anti-sickling (average) (RBC from SCD subjects; hypoxia 2-4 hours at 25 degree centigrade, SCD subject #5): > 90%
- anti-sickling (average) (RBC from SCD subjects; hypoxia 2-4 hours at 25 degree centigrade, SCD subjects): > 90%
- formation of irreversibly sickled cells (RBC from SCD subjects; 2-24 hours incubation under 95% N2/5% CO2, high concentration): significantly decreased
- effect on normal morphology of RBC [2]: no effect; also recorded: without any effect
